Assay results reported in article PMC6345968, “Structural basis for species-selective targeting of Hsp90 in a pathogenic fungus” (Nature Communications, 2019).
Like-named read-outs stand apart in the source and are kept apart here.

Key:
[1] = target: T1, Hsp90 in C. albicans (SC5314) lysate (Candida albicans, UniProt P46598); experiment: biochemical; format: binding; conditions: for FP signal: raw
T1 construct: endogenous in cells; host or cells: C. albicans SC5314 whole-cell lysate

Hsp90 in HEPG2 lysate = conditions: for FP signal (raw) / FP signal: HepG2 lysate; for FP signal: raw
[2] = EC50 relative to GdA, SC5314 lysate
[3] = SC5314 lysate, 0.457 nM compound
[4] = SC5314 lysate, 1.372 nM compound
[5] = SC5314 lysate, 4.115 nM compound
[6] = SC5314 lysate, 12.346 nM compound
[7] = SC5314 lysate, 37.037 nM compound
[8] = SC5314 lysate, 111.111 nM compound
[9] = SC5314 lysate, 333.333 nM compound
[10] = SC5314 lysate, 1000 nM compound
[11] = SC5314 lysate, 3000 nM compound
[12] = EC50 relative to GdA, HEPG2 lysate
[13] = HEPG2 lysate, log concentration 0.137354 (1.372 nM)
[14] = HEPG2 lysate, log concentration 0.61437 (4.115 nM)
[15] = HEPG2 lysate, log concentration 1.09153 (12.346 nM)
[16] = HEPG2 lysate, log concentration 1.56864 (37.037 nM)
[17] = HEPG2 lysate, log concentration 2.04576 (111.111 nM)
[18] = HEPG2 lysate, log concentration 2.52288 (333.333 nM)
[19] = HEPG2 lysate, log concentration 3 (1000 nM)
[20] = HEPG2 lysate, log concentration 3.47712 (3000 nM)
[21] = HEPG2 lysate, log concentration -0.340084 (0.457 nM)

T1 sequence (P46598 whole entry): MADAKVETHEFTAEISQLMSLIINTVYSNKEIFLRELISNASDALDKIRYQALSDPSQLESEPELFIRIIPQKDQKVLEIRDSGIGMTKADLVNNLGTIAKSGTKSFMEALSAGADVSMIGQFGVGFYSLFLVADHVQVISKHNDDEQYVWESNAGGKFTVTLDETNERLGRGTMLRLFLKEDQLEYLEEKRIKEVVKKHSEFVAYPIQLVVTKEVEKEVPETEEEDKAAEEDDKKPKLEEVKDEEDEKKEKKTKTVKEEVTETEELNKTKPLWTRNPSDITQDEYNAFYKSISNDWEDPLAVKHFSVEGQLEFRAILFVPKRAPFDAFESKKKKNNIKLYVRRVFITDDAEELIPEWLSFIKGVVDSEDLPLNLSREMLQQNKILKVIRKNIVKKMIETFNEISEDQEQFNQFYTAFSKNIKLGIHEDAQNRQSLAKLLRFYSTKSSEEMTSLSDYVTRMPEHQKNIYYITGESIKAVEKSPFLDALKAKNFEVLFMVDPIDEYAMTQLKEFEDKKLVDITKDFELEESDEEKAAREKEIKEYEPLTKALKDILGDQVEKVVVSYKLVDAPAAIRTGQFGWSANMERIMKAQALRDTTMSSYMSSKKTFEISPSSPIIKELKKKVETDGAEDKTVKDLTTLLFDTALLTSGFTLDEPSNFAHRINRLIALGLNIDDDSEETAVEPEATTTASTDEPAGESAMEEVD

For `COc1ccc(CON=C2C=CC=CC3OC3CC(C)OC(=O)c3c(O)cc(O)c(Cl)c3C2)cc1` (mixture of isomers) [compound 224], the “Ratio re. GdA” value [1, 2] was 79.2475, the “FP signal (raw)” value ([1]; SC5314 lysate, 0.457 nM) was 204 and the “FP signal relative to 0 nM” value [1, 3] was 1.02. For the same compound, the FP signal [1, 3] was 204, the “FP signal (raw)” value ([1]; SC5314 lysate, 1.372 nM) was 206 and the “FP signal relative to 0 nM” value [1, 4] was 1.03. The FP signal [1, 4] was 206, the “FP signal (raw)” value ([1]; SC5314 lysate, 4.115 nM) was 205 and the “FP signal relative to 0 nM” value [1, 5] was 1.025. The FP signal [1, 5] was 205, the “FP signal (raw)” value ([1]; SC5314 lysate, 12.346 nM) was 200 and the “FP signal relative to 0 nM” value [1, 6] was 1. For the same compound, the FP signal [1, 6] was 200, the “FP signal (raw)” value ([1]; SC5314 lysate, 37.037 nM) was 198 and the “FP signal relative to 0 nM” value [1, 7] was 0.99. The FP signal [1, 7] was 198, the “FP signal (raw)” value ([1]; SC5314 lysate, 111.111 nM) was 193 and the “FP signal relative to 0 nM” value [1, 8] was 0.965. The FP signal [1, 8] was 193, the “FP signal (raw)” value ([1]; SC5314 lysate, 333.333 nM) was 171 and the “FP signal relative to 0 nM” value [1, 9] was 0.855. For the same compound, the FP signal [1, 9] was 171, the “FP signal (raw)” value ([1]; SC5314 lysate, 1000 nM) was 116 and the “FP signal relative to 0 nM” value [1, 10] was 0.58. The FP signal [1, 10] was 116, the “FP signal (raw)” value ([1]; SC5314 lysate, 3000 nM) was 52 and the “FP signal relative to 0 nM” value [1, 11] was 0.26. For the same compound, the FP signal [1, 11] was 52, the HepG2/SC5314 ([1]; ratio of GdA-normalized EC50s, human over fungal lysate) was 1.707 and the HepG2/SC5314 ([1]; ratio of GdA-relative EC50 ratios, HepG2 over SC5314) was 1.707. For the same compound, the “Ratio rel. GdA (HepG2)” value (Hsp90 in HEPG2 lysate; EC50 / EC50 of GdA in HepG2 lysate) was 135.257, the “Ratio rel. GdA (HepG2)” value (Hsp90 in HEPG2 lysate; [12]) was 135.257 and the “FP signal, Fxn Control” value (Hsp90 in HEPG2 lysate; [13]) was 1.005. The “FP signal, Fxn Control” value (Hsp90 in HEPG2 lysate; [14]) was 0.9952, the “FP signal, Fxn Control” value (Hsp90 in HEPG2 lysate; [15]) was 1.01 and the “FP signal, Fxn Control” value (Hsp90 in HEPG2 lysate; [16]) was 1.014. For the same compound, the “FP signal, Fxn Control” value (Hsp90 in HEPG2 lysate; [17]) was 1.005, the “FP signal, Fxn Control” value (Hsp90 in HEPG2 lysate; [18]) was 0.9952 and the “FP signal, Fxn Control” value (Hsp90 in HEPG2 lysate; [19]) was 0.8702. For the same compound, the “FP signal, Fxn Control” value (Hsp90 in HEPG2 lysate; [20]) was 0.5048, the “FP signal, Fxn Control” value (Hsp90 in HEPG2 lysate; [21]) was 0.9904 and the “FP signal (raw)” value (Hsp90 in HEPG2 lysate; 0.457 nM) was 206. The FP signal (Hsp90 in HEPG2 lysate; 0.457 nM compound) was 206, the “FP signal (raw)” value (Hsp90 in HEPG2 lysate; 1.372 nM) was 209 and the FP signal (Hsp90 in HEPG2 lysate; 1.372 nM compound) was 209. The “FP signal (raw)” value (Hsp90 in HEPG2 lysate; 4.115 nM) was 207, the FP signal (Hsp90 in HEPG2 lysate; 4.115 nM compound) was 207 and the “FP signal (raw)” value (Hsp90 in HEPG2 lysate; 12.346 nM) was 210. For the same compound, the FP signal (Hsp90 in HEPG2 lysate; 12.346 nM compound) was 210, the “FP signal (raw)” value (Hsp90 in HEPG2 lysate; 37.037 nM) was 211 and the FP signal (Hsp90 in HEPG2 lysate; 37.037 nM compound) was 211. For the same compound, the “FP signal (raw)” value (Hsp90 in HEPG2 lysate; 111.111 nM) was 209, the FP signal (Hsp90 in HEPG2 lysate; 111.111 nM compound) was 209 and the “FP signal (raw)” value (Hsp90 in HEPG2 lysate; 333.333 nM) was 207. The FP signal (Hsp90 in HEPG2 lysate; 333.333 nM compound) was 207, the “FP signal (raw)” value (Hsp90 in HEPG2 lysate; 1000 nM) was 181 and the FP signal (Hsp90 in HEPG2 lysate; 1000 nM compound) was 181. The “FP signal (raw)” value (Hsp90 in HEPG2 lysate; 3000 nM) was 105 and the FP signal (Hsp90 in HEPG2 lysate; 3000 nM compound) was 105.

With `CC1(C)CC(=O)c2c(C(F)(F)F)nn(-c3ccc(C(N)=O)c(N[C@H]4CC[C@H](OC(=O)CN)CC4)c3)c2C1` [SNX-5422] the Hep/SC ([1]; EC50 HEPG2 / EC50 SC5314) was 5.438, the “Rel. to GdA” value [1, 2] was 0.6171 and the “Hep/Sc rel. Gda” value ([1]; Hep/SC ratio relative to that of GdA) was 4.063. For the same compound, the “FP signal (raw)” value ([1]; SC5314 lysate, 0.457 nM) was 205, the “FP signal (raw)” value ([1]; SC5314 lysate, 1.372 nM) was 197 and the “FP signal (raw)” value ([1]; SC5314 lysate, 4.115 nM) was 177. The “FP signal (raw)” value ([1]; SC5314 lysate, 12.346 nM) was 118, the “FP signal (raw)” value ([1]; SC5314 lysate, 37.037 nM) was 60 and the “FP signal (raw)” value ([1]; SC5314 lysate, 111.111 nM) was 41. For the same compound, the “FP signal (raw)” value ([1]; SC5314 lysate, 333.333 nM) was 35, the “FP signal (raw)” value ([1]; SC5314 lysate, 1000 nM) was 33 and the “FP signal (raw)” value ([1]; SC5314 lysate, 3000 nM) was 34. For the same compound, the EC50 ([1]; SC5314 lysate, read-out: EC50) was 12.1 nM, the “Rel. to GdA” value (Hsp90 in HEPG2 lysate; [12]) was 2.507 and the EC50 (Hsp90 in HEPG2 lysate; HEPG2 lysate) was 65.6 nM. The “FP signal, Fxn Control” value (Hsp90 in HEPG2 lysate; [13]) was 0.9858, the “FP signal, Fxn Control” value (Hsp90 in HEPG2 lysate; [14]) was 0.9717 and the “FP signal, Fxn Control” value (Hsp90 in HEPG2 lysate; [15]) was 0.8821. The “FP signal, Fxn Control” value (Hsp90 in HEPG2 lysate; [16]) was 0.7028, the “FP signal, Fxn Control” value (Hsp90 in HEPG2 lysate; [17]) was 0.4953 and the “FP signal, Fxn Control” value (Hsp90 in HEPG2 lysate; [18]) was 0.3632. For the same compound, the “FP signal, Fxn Control” value (Hsp90 in HEPG2 lysate; [19]) was 0.25, the “FP signal, Fxn Control” value (Hsp90 in HEPG2 lysate; [20]) was 0.217 and the “FP signal, Fxn Control” value (Hsp90 in HEPG2 lysate; [21]) was 0.9858. For the same compound, the “FP signal (raw)” value (Hsp90 in HEPG2 lysate; 0.457 nM) was 209, the “FP signal (raw)” value (Hsp90 in HEPG2 lysate; 1.372 nM) was 209 and the “FP signal (raw)” value (Hsp90 in HEPG2 lysate; 4.115 nM) was 206. For the same compound, the “FP signal (raw)” value (Hsp90 in HEPG2 lysate; 12.346 nM) was 187, the “FP signal (raw)” value (Hsp90 in HEPG2 lysate; 37.037 nM) was 149 and the “FP signal (raw)” value (Hsp90 in HEPG2 lysate; 111.111 nM) was 105. For the same compound, the “FP signal (raw)” value (Hsp90 in HEPG2 lysate; 333.333 nM) was 77, the “FP signal (raw)” value (Hsp90 in HEPG2 lysate; 1000 nM) was 53 and the “FP signal (raw)” value (Hsp90 in HEPG2 lysate; 3000 nM) was 46.
